Experimental data from PubChem BioAssay AID504557 (Johns Hopkins Ion Channel Center, 2011).
Active and inactive are the calls of the source.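 How the source made its calls: active means blocks current through the Kir2.1 potassium channel at one or more tested doses and yields a dose response curve; inactive means no block at any dose, or no dose response.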

Target: Inward rectifier potassium channel 2 (Mus musculus) (UniProt P35561)
Assay: mouse Kir2.1 channel inhibitors, SAR follow-up, cell-based, thallium flux, FluxOR (AID 504557)
Conditions: Kir2.1 stable cells, FluxOR thallium flux fluorescence; for activity change, negative = inhibition: at 71 µM (top of the series)

Sequence of Inward rectifier potassium channel 2 (Mus musculus) (P35561 whole entry, looked up): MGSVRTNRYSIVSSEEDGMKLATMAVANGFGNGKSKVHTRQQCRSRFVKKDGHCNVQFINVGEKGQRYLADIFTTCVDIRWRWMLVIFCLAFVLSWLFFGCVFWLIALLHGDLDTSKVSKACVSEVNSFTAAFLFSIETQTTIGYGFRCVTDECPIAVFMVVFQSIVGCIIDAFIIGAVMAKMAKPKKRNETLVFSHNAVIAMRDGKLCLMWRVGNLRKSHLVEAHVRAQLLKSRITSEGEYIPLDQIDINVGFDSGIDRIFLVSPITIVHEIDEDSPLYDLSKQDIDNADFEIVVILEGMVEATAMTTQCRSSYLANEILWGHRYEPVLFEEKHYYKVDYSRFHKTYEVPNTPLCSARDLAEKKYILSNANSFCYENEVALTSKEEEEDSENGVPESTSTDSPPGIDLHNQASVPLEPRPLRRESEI

IC50	activity change, negative = inhibition	Compound
13.4 µM	–	C[C@@H](NS(=O)(=O)c1ccc(Cl)cc1)c1ccccc1
7.59 µM	–	C[C@@H](NS(=O)(=O)c1cccc(Br)c1)c1ccccc1
–	inactive	C[C@@H](NS(C)(=O)=O)c1ccccc1
4.74 µM	–	C[C@H](NS(C)(=O)=O)c1ccccc1
7.57 µM	–	Cc1ccc(Nc2cc(C)nc3c(C)cccc23)cc1
7.6 µM	–	Cc1noc(C)c1COC(=O)CCN1c2ccccc2Sc2ccccc21
13.3 µM	–	c1ccc(CNc2c3ccccc3nc3ccccc23)cc1
13.6 µM	–	Cc1ccc2nc(NCc3ccccc3)[nH]c2c1
0.679 µM	–	CC(O)CNCCCOc1cccc(Oc2ccccc2)c1 (configuration not stated)
11 µM	–	C[C@H](NS(=O)(=O)c1cccc(Br)c1)c1ccccc1
11.8 µM	–	c1ccc(COc2ccc(OCCCNC3CCCC3)cc2)cc1
12.9 µM	–	C[C@H](NS(=O)(=O)c1ccccc1Br)c1ccccc1
–	inactive	O=S(=O)(c1ccc(F)cc1)N1CCCc2ccccc21
13.9 µM	–	Cc1ccc2nc(N3CCN(CCO)CC3)nc(-c3ccccc3)c2c1
11.7 µM	–	C[C@H](NS(=O)(=O)c1ccc(Cl)cc1)c1ccccc1
1.38 µM	–	Cc1ccc(C)c(OCCCNCc2ccccc2)c1
9.46 µM	–	Cc1ccc(S(=O)(=O)N[C@H](C)c2ccccc2)cc1
34.1 µM	–	C[C@H](NS(=O)(=O)c1cc(Cl)cc(Cl)c1O)c1ccccc1
6.93 µM	–	CC(NS(=O)(=O)c1ccc(Br)cc1)c1ccccc1 (configuration not stated)
13 µM	–	C[C@@H](NS(=O)(=O)c1ccccc1Br)c1ccccc1
–	inactive	C[C@@H](NS(=O)(=O)c1cc(Cl)cc(Cl)c1O)c1ccccc1
15.2 µM	–	Cc1ccc(S(=O)(=O)N[C@@H](C)c2ccccc2)cc1
4.9 µM	–	C[C@H](NS(=O)(=O)c1ccccc1)c1ccccc1
–	inactive	C[C@@H](NS(=O)(=O)c1ccccc1)c1ccccc1
25.3 µM	–	C[C@@H](NS(=O)(=O)c1ccc(Br)cc1)c1ccccc1
–	inactive	O=C(NCC1CCCCN1)c1cc(OCC(F)(F)F)ccc1OCC(F)(F)F (configuration not stated)
7.14 µM	–	C[C@H](NS(=O)(=O)c1ccc(Br)cc1)c1ccccc1
